Test: cn = amount concentration of the nth substance listed, in mol/dm3
Details: 101.3 kPa, Liquid, Taylor dispersion method

OC[C@H]1O[C@@H]2O[C@H]3[C@H](O)[C@@H](O)[C@@H](O[C@H]4[C@H](O)[C@@H](O)[C@@H](O[C@H]5[C@H](O)[C@@H](O)[C@@H](O[C@H]6[C@H](O)[C@@H](O)[C@@H](O[C@H]7[C@H](O)[C@@H](O)[C@@H](O[C@H]1[C@H](O)[C@H]2O)O[C@@H]7CO)O[C@@H]6CO)O[C@@H]5CO)O[C@@H]4CO)O[C@@H]3CO [α-cyclodextrin] + O
binary diffusion coefficient [m2/s]
Details | c1 = 0.002 | c1 = 0.004 | c1 = 0.006 | c1 = 0.008 | c1 = 0.01
298.15 K | 3.52e-10 | 3.5e-10 | 3.49e-10 | 3.47e-10 | 3.46e-10
303.15 K | 4.07e-10 | 4.04e-10 | 4.03e-10 | 4.01e-10 | 3.98e-10
308.15 K | 4.38e-10 | 4.36e-10 | 4.35e-10 | 4.34e-10 | 4.31e-10
312.15 K | 5.02e-10 | 4.98e-10 | 4.88e-10 | 4.78e-10 | 4.72e-10

Reference: the NIST ThermoML archive (doi:10.1021/je060474z)
